Measured values taken from paper PMC7465636 (Biomolecules, 2020).
Read-outs that look alike come from different tables or passages of the source.

Experiments:
P. falciparum 3D7 = test: In vitro growth assay with flow cytometry, P. falciparum 3D7; type: cell-based, Plasmodium falciparum
Experimental: (§1) Erythrocytes infected with P. falciparum 3D7 and the knockout strain for the PfSR25 receptor (PfSR25-) were kept in 175 cm^2 culture bottles (Greiner Bio-One) containing RPMI 1640 with 0.5% NaHCO3, 0.04% sulfate gentamicin, 0.05% hypoxanthine and supplemented with 0.5% AlbuMAX I (Gibco). The culture bottles were maintained at 37 °C and an atmosphere with 90% N2, 5% O2 and 5% CO2 Parasitemia was determined from a blood smear stained with Panotic Rapid (Laborclin).
(§2) Red blood cells infected with P. falciparum (iRBC) asynchronously with 0.3% initial parasitemia and 1% hematocrit were incubated with different concentrations of compounds ranging from 0.0488 µM to 50 µM, for 72 h at 37 °C under mixture of gases. The control group was treated with solvent Dimethyl Sulfoxide (DMSO) (v/v); with the highest concentration of solvent bring 0.25%.
(§3) Parasitemia was determined from the dot plots (side scatter versus fluorescence) of at least […] acquired on an Accuri C6 flow cytometer (Becton Dickinson). Initial gating was carried out with unstained, uninfected erythrocytes to account for erythrocyte autofluorescence.
(§4) After 72 h, iRBCs were stained with nucleic acid marker SYBR Green I (1X) (Invitrogen) and mitochondria marker based on membrane potential MitoTracker Deep Red (50 nM) (Invitrogen), and were incubated for 20 min. at 37 °C. The final parasitemia was obtained by flow cytometer using a BD Accuri C6 Flow Cytometer, collecting 10^³ cells. Dot plots using FlowJo V10.6.2 software determined Parasitemia. At least three independent experiments were performed in triplicate to calculate the IC50 values for each drug.
In order to identify potential antimalarials present in the library of compounds derived from the 1H-1,2,3-triazoles and 2H-1,2,3-triazoles, we used a culture of P. falciparum (3D7) to perform the screening tests of the compounds. To assess parasitemia at the end of the parasites incubation with the compounds for 72 h, we used a double-label: (1) SYBR Green I to mark DNA and (2) MitoTracker Deep Red as a mitochondria marker. The latter being dependent on the membrane potential, we ensured that only the marking and selection of viable parasites occurred.

HEK293 cells = type: cell-based, human; conditions: 72 h; for survival of HEK293 cells (MTT): 0.0488–50 µM; for toxicity in HEK 293 cells (MTT): at the tested concentrations (0.0488–50 µM)
Experimental: Human Embryonic Kidney Cells (HEK293) were kept in 75 cm^2 culture bottles (Greiner Bio-One) at 37 °C, 5% CO2 containing Dulbecco’s Minimal Essential Medium (DMEM), added with 10% fetal bovine serum, 1% Streptomycin and Penicillin and 3.7 g/L of NaHCO3 (Sigma). Cell passages were performed with trypsin-EDTA (Invitrocell). The number of cells was monitored by counting in a Neubauer chamber.
To evaluate the toxicity of the triazole compounds in mammalian cells, Human Embryonic Kidney cells (HEK293). Cells were plated in flat-bottom 96-well plates at a density of 10^4 cells per well and incubated for 24 h in 150 µL media at 37 °C, 5% CO2. Cells were then treated with different concentrations of each compound, ranging from 0.0488 µM to 50 µM in 200 µL DMEM for 72 h at 37 °C and 5% CO2. Cells treated with DMSO (v/v), with the highest concentration of solvent at 0.25% were used as control. After incubation, 40 µL of MTT reagent (solution 5 mg/mL in PBS) was added to each well, and cells were incubated for further 3 h at 37 °C and 5%CO2 [35]. The media was removed, and 100 µL of DMSO was added in each well. The plates were agitated in a shaker for 10 min to dissolve precipitates. The absorbance was read at 570 nm in a FlexStation 3 (Molecular Devices). Three experiments were performed independently in triplicates.

[1] = molecular target: P. falciparum PfSR25- (knockout strain for the PfSR25 receptor); test: In vitro growth assay with flow cytometry, PfSR25- knockout strain; type: cell-based, Plasmodium falciparum; conditions: for IC50 for the knockout strain compared with the 3D7 strain: PfSR25- versus 3D7; for IC50: 72 h
Experimental: as §1, §2, §3, §4
We also assessed the role of PfSR25 in terms of its susceptibility to compounds with a better antimalarial activity (9, 13, 19, 21, 22, 24 and 29) and compounds with less activity (21) based on the results obtained with the 3D7 screening. Thus, the tests were carried out like that described above and are represented in Figure 5. However, we used the knockout strain for the receptor-like PfSR25- for the tests.

[2] = type: physicochemical; conditions: in our experimental conditions
Excerpt: The methods used to prepare the 1-aryl-1H-1,2,3-triazoles and 2-aryl-2H-1,2,3-triazoles (54 examples) involved classical chemical transformations, and all evaluated compounds were from the group’s molecular bank and were present in other published works. […] This information can be important for future studies.

[3] = Plasmodium falciparum, 3D7, 72 h, P. falciparum 3D7, 72 h, 0.0488–50 µM, ± standard error of the mean, read-out: IC50
[4] = P. falciparum 3D7, 72 h, 0.0488–50 µM, ± standard error of the mean, read-out: IC50

Molecule: O=C(N/N=C/c1cn(-c2ccc(Cl)cc2)nn1)c1ccncc1 [Compound 28]
- IC50 (P. falciparum 3D7; [3]): 14.5 ± 1.13 µM

Molecule: COc1ccc(-n2cc(/C=N/Nc3ccccc3)nn2)cc1 [Compound 24]
- survival of HEK293 cells (MTT) (HEK293 cells): above 80%
- toxicity in HEK 293 cells (MTT) (HEK293 cells): no toxicity
- IC50 for the knockout strain compared with the 3D7 strain [1]: lower IC50 values for the knockout strain
- IC50 ([1]; Plasmodium falciparum): 0.99 ± 0.25 µM

Molecule: COc1ccc(-n2cc(/C=N/NC(=O)c3ccncc3)nn2)cc1 [Compound 30]
- IC50 (P. falciparum 3D7; [3]): 23.2 ± 1.94 µM

Molecule: Clc1ccc(N/N=C/c2cn(-c3ccc(Cl)cc3)nn2)cc1 [Compound 18]
- IC50 (P. falciparum 3D7; [3]): 17.6 ± 1.07 µM

Molecule: CCOC(=O)c1cn(-c2ccccc2)nn1 [Compound 6]
- IC50 (P. falciparum 3D7; [3]): 12.8 ± 3.02 µM

Molecule: Clc1ccc(-n2cc(/C=N/Nc3cc(Cl)ccc3Cl)nn2)cc1 [Compound 20, (E)-1-(4-chlorophenyl)-4-((2-(2,5-dichlorophenyl)hydrazono)methyl)-1H-1,2,3-triazole]
- melting point: 181 to 182 °C
- IC50 (P. falciparum 3D7; [3]): 13.6 ± 1.2 µM

Molecule: C[C@@H]1CC[C@H]2[C@@H](C)C(=O)O[C@@H]3O[C@@]4(C)CC[C@@H]1[C@]32OO4 [Artemisinin, reference compound]
- IC50 (P. falciparum 3D7; Plasmodium falciparum, 3D7, 72 h, 3D7, positive control […] to 160 nM, 72 h, unit inferred, read-out: IC50 (dose-response curve, Figure 3A)): 0.0062 ± 0.00073 µM
- IC50 ([1]; Plasmodium falciparum, read-out: IC50 (dose-response curve, Figure 3B)): 0.0058 ± 0.00172 µM

Molecule: ON=Cc1cn(-c2ccc(Cl)cc2)nn1 [Compound 13]
- survival of HEK293 cells (MTT) (HEK293 cells): above 80%
- toxicity in HEK 293 cells (MTT) (HEK293 cells): no toxicity
- IC50 (P. falciparum 3D7; [4]): 6.67 ± 1.86 µM
- IC50 (P. falciparum 3D7; [3]): < 10 µM
- IC50 for the knockout strain compared with the 3D7 strain [1]: lower IC50 values for the knockout strain
- IC50 ([1]; Plasmodium falciparum): 0.89 ± 0.39 µM

Molecule: CCCOCc1cn(-c2cc(Cl)cc(Cl)c2)nn1 [Compound 3]
- IC50 (P. falciparum 3D7; [3]): 14.5 ± 1.71 µM

Molecule: O=C(N/N=C/c1cnn(-c2ccccc2)n1)c1ccncc1 [Compound 31]
- IC50 (P. falciparum 3D7; [3]): 20.2 ± 0.79 µM

Molecule: COc1ccc(-n2cc(/C=N/Nc3ccc(Br)cc3)nn2)cc1 [Compound 52, (E)-4-((2-(4-bromophenyl)hydrazono)methyl)-1-(4-methoxyphenyl)-1H-1,2,3-triazole]
- melting point: 230 to 231 °C
- solubilization [2]: weren’t able to be solubilized

Molecule: Fc1ccc(N/N=C/c2cn(-c3ccc(Cl)cc3)nn2)cc1 [Compound 19]
- survival of HEK293 cells (MTT) (HEK293 cells): above 80%
- toxicity in HEK 293 cells (MTT) (HEK293 cells): no toxicity
- IC50 (P. falciparum 3D7; [4]): 8.45 ± 2.25 µM
- IC50 (P. falciparum 3D7; [3]): < 10 µM
- IC50 for the knockout strain compared with the 3D7 strain [1]: lower IC50 values for the knockout strain
- IC50 ([1]; Plasmodium falciparum): 2.24 ± 0.77 µM

Molecule: CCCCOCc1cn(-c2cc(Cl)cc(Cl)c2)nn1 [Compound 5]
- IC50 (P. falciparum 3D7; [3]): 23.9 ± 2.01 µM

Molecule: O=C(OCc1cnn(-c2ccccc2)n1)c1ccccc1 [Compound 8]
- IC50 (P. falciparum 3D7; [4]): 27.5 ± 1.26 µM
- IC50 (P. falciparum 3D7; [3]): > 25 µM

Molecule: CCCCCCCCCC(=O)OCc1cn(-c2ccc(OC)cc2)nn1 [Compound 11]
- IC50 (P. falciparum 3D7; [3]): 23.5 ± 2.77 µM

Molecule: (E)-1-(3,5-dichlorophenyl)-4-((2-(2,5-dimethylphenyl)hydrazono)methyl)-1H-1,2,3-triazole [Compound 22]
- survival of HEK293 cells (MTT) (HEK293 cells): above 80%
- toxicity in HEK 293 cells (MTT) (HEK293 cells): no toxicity
- IC50 (P. falciparum 3D7; [4]): 5.56 ± 0.47 µM
- IC50 ([1]; PfSR25- knockout strain, ± standard error of the mean, read-out: IC50): 4.41 ± 0.6 µM
- IC50 for the knockout strain compared with the 3D7 strain [1]: lower IC50 values for the knockout strain

Molecule: COc1ccc(-n2cc(COC(=O)c3ccccc3)nn2)cc1 [Compound 12]
- IC50 (P. falciparum 3D7; [3]): 13.5 ± 1.12 µM

Molecule: Clc1ccc(N/N=C/c2cnn(-c3ccccc3)n2)cc1 [Compound 16]
- IC50 (P. falciparum 3D7; [4]): 9.29 ± 1.01 µM
- IC50 (P. falciparum 3D7; [3]): < 10 µM

Molecule: O=C(N/N=C/c1cn(-c2ccccc2)nn1)c1ccncc1 [Compound 27]
- IC50 (P. falciparum 3D7; [3]): 23.1 ± 2.58 µM
